According to US5308605A, “Diagnosis of tumors with 5-radioiodo-2'-deoxyuridine” (priority 1992, dated 1994):
Read-outs that look alike come from different tables or passages of the source.

Columns and labels:
[1] = mouse; unincorporated IUdR; cited from earlier work
[2] = humans; unincorporated IUdR; cited from earlier work
[3] = system: murine ovarian tumor (MOT); assay: Antineoplastic effect (survival fraction, median survival) in mouse ascites tumor; assay type: in vivo, C3HeB/FeJ mice
From the text: 2. ^125 IUdR Is an Effective Antineoplastic Agent In A Mouse Ascites Tumor. The tumor used in these experiments is the same murine ovarian tumor described above. We have determined the median survival of mice after i.p. challenge with various tumor cell inocula.
The relatively long survival of tumor-bearing mice facilitates quantitative evaluation of tumor cell killing after treatment with ^125 IUdR and can be used to calculate a cellular survival fraction.

[4] = system: transitional cell carcinoma of the bladder; assay: Planar scintigraphy of MNU-induced bladder cancer; assay type: in vivo, Fisher 344 rats; details: day 3, intravesical
Procedure: The carcinogen N-methyl-N-nitrosourea (MNU), known to induce transitional cell carcinoma of the bladder, was instilled directly into the bladder lumen of 4-to-5-week old female Fisher 344 rats (20 animals) via bladder catheterization using a 22-gauge angiocatheter (1.5 mg/0.15 ml saline intravesically, every other week for a total of 4 doses). The drinking water was supplemented with a combination of trimethoprim-sulfamethoxasole, neomycin sulfate and polymixin B. Twelve to sixteen weeks after the last MNU infusion, the bladder was catheterized and emptied and [^125 I/^131 I ]IUdR (6. 4 to 10. 9 MBq [^125 I]IUdR [172 to 294 μCi] and 10.7 MBq [^131 I ]IUdR [290 μCi]) was administered through the catheter in a 100- or 200- μl volume and left in place for 2 h. The bladder contents were then withdrawn and the bladder rinsed with normal saline (5×1-ml). Nontumor-bearing control rats (16 animals) were injected by the same route with identical amounts of [^125 I/^131 I]IUdR. The drinking water of all animals was supplemented with 0. 1% potassium iodide from 48 to 72 h prior to the administration of the radiopharmaceutical up to the time of sacrifice. The tumor-bearing rats and the non-tumor bearing control rats were divided into Group A consisting of 12 tumor-bearing and 12 control rats, and Group B consisting of 8 tumor-bearing and 4 control rats. […]

[5] = system: murine ovarian tumor (MOT); assay: Scintigraphic imaging of ovarian tumor-bearing mice; assay type: in vivo, C3HeB/FeJ mice; details: later than 1 h (2, 16, 24 hr); 300 μCi
9 L gliosarcoma [6] = assay: Scintigraphic imaging of brain tumors after intratumor injection; details: control animals; images 12-38 h
9 L gliosarcoma [7] = assay: Biodistribution 40 h after injection in brain tumor-bearing rats
DNA = assay: Microautoradiography of bladder, intestine and bone marrow; assay type: in vivo, Fisher 344 rats
Procedure: The carcinogen N-methyl-N-nitrosourea (MNU), known to induce transitional cell carcinoma of the bladder, was instilled directly into the bladder lumen of 4-to-5-week old female Fisher 344 rats (20 animals) via bladder catheterization using a 22-gauge angiocatheter (1.5 mg/0.15 ml saline intravesically, every other week for a total of 4 doses). The drinking water was supplemented with a combination of trimethoprim-sulfamethoxasole, neomycin sulfate and polymixin B. Twelve to sixteen weeks after the last MNU infusion, the bladder was catheterized and emptied and [^125 I/^131 I ]IUdR (6. 4 to 10. 9 MBq [^125 I]IUdR [172 to 294 μCi] and 10.7 MBq [^131 I ]IUdR [290 μCi]) was administered through the catheter in a 100- or 200- μl volume and left in place for 2 h. The bladder contents were then withdrawn and the bladder rinsed with normal saline (5×1-ml). Nontumor-bearing control rats (16 animals) were injected by the same route with identical amounts of [^125 I/^131 I]IUdR. The drinking water of all animals was supplemented with 0. 1% potassium iodide from 48 to 72 h prior to the administration of the radiopharmaceutical up to the time of sacrifice. The tumor-bearing rats and the non-tumor bearing control rats were divided into Group A consisting of 12 tumor-bearing and 12 control rats, and Group B consisting of 8 tumor-bearing and 4 control rats. Group A was sacrificed 48 hours after administration of the radiopharmaceutical while Group B was sacrificed one (1) week after administration of the radiopharmaceutical.
The specificity of targeting and the DNA-incorporation of [^125 I]IUdR were determined by microautoradiography. The distribution and frequency of grains were assessed over the entire section and compared to the histopathologic findings. At the time of the biodistribution studies, the small intestine and the large intestine were quickly frozen in isopentane and liquid nitrogen. Bone marrow smears were fixed in 100% methanol. After rinsing with normal saline, the bladder was fixed in situ with 10% buffered formaldehyde, excised, and subsequently embedded in paraffin. The tissues were then sectioned (5-7 μm thickness), fixed (except for the bladder sections already fixed in vivo) and processed for autoradiography as were the bone marrow smears.
The tissue sections and bone marrow slides were coated with NTB2 emulsion (Kodak) and stored desiccated at 4° C. in light-tight boxes. After various times of emulsion exposure (up to 7 months), the autoradiographic slides were developed for 3 min in D-19 developer (Kodak) and fixed for 5 min in D-11 fixer (Kodak). Finally, the tissue sections were washed in distilled water, stained with hematoxylin/eosin, dehydrated, cleared, and mounted in Permount. Bone marrow slides were stained with Giemsa stain. Tissue and bone marrow slides were then examined under light microscopy.

[8] = system: transitional cell carcinoma of the bladder; assay type: in vivo, Fisher 344 rats
From the text: No carrier added [^125 I/^131 I] IUdR was synthesized as described previously, see U.S. Pat. No. 4,851,520 hereby incorporated by reference, and purified on a C18 reverse phase HPLC column. The radiochemical purity of the product was>99% as determined by TLC with specific activities of 81.40 TBq/mmol and 96.94 GBq/mmol for [^125 I] IUdR and [^131 I] IUdR, respectively.
The carcinogen N-methyl-N-nitrosourea (MNU), known to induce transitional cell carcinoma of the bladder, was instilled directly into the bladder lumen of 4-to-5-week old female Fisher 344 rats (20 animals) via bladder catheterization using a 22-gauge angiocatheter (1.5 mg/0.15 ml saline intravesically, every other week for a total of 4 doses). […]
The biodistribution studies were conducted at 48 hours and at 1 week after administration of radiolabeled IUdR in order to quantitate the in vivo distribution of the radiopharmaceutical in terms of percent injected dose per gram of tissue (%ID/g) and to derive tumor to normal tissue ratios. Various organs and tissues of interest were excised, rinsed, blotted dry, weighed, and their radioactive content was determined in a gamma counter along with that of urine, stomach contents, blood and bone marrow.

With `O=c1[nH]c(=O)n([C@H]2C[C@H](O)[C@@H](CO)O2)cc1I` [IUdR, 5-Iodo-2'-deoxyuridine] as the compound, how does the half-life in circulation [1] read?
The half-life in circulation was “less than seven”.

What about the half-life in circulation [2] of the same compound?
The half-life in circulation was “less than five”.

What does the source list for `O=c1[nH]c(=O)n([C@H]2C[C@H](O)[C@@H](CO)O2)cc1I` [[^131 I]IUdR, 5-iodo-2'-deoxyuridine]?
decrease in survival ([3]; equivalent doses, 131I label): does not result in any decrease in survival; scintigraphic activity in normal animals [4]: virtual absence of activity in normal animals; scintigraphic activity in tumor-bearing animals [4]: only visible area of activity remaining in the tumor-bearing animals was over the region of the bladder

With `O=c1[nH]c(=O)n([C@H]2C[C@H](O)[C@@H](CO)O2)cc1I` [^123 IUdR, 5-iodo-2'-deoxyuridine] as the compound, how does the “survival fraction of tumor cells as a function of dose” value ([3]; 5 i.p. injections, 4 h intervals) read?
Its value is “an exponential decrease is obtained similar to that observed with the ^125 IUdR data”.

What about the “median survival of tumor-bearing animals” value ([3]; 5 i.p. injections, 4 h intervals, 24 h post tumor inoculation) of the same compound?
Its value is “prolongs median survival of the tumor-bearing animals (FIG. 7 of the incorporated patent) in a dose-dependent fashion”.

What about the “focal area of abdominal activity, later time points” value [5] of the same compound?
Its value is “persisted only in MOT-bearing mice while it cleared from the abdomen of animals without tumor”.

And the “clearance of activity from the head” value (9 L gliosarcoma [6])?
The value was “clearance of the activity from the head of all control animals by 12 h”.

And the “injected dose found in tumor” value (9 L gliosarcoma [7]; one animal, tumor occupied large portion of right brain specimen)?
Its value is 25 % of the injected dose.

And the “injected dose per gram, right brain (injected side), sham-operated” value (9 L gliosarcoma [7]; sham-operated controls, mean±SD)?
Its value is 0.09±0.02 %ID/g.

And the “injected dose per gram, right brain (injected side), tumor-bearing” value (9 L gliosarcoma [7]; tumor-bearing animals, mean±SD, P<0.05 vs sham)?
The value was 0.36±0.14 %ID/g.

For `O=c1[nH]c(=O)n([C@H]2C[C@H](O)[C@@H](CO)O2)cc1I` [^125 IUdR, 5-iodo-2'-deoxyuridine], which “tumor cell survival fraction (plateau)” value ([3]; seven consecutive injections) is on record?
The value was 10^-5.

What about the “penetration into the bladder wall” value (DNA; animals with infection/inflammation) of the same compound?
Its value is “potential for radiolabeled IUdR to penetrate deep within the bladder wall”.

What about the “uptake in squamous metaplasia and bacteria” value (DNA; basal layer of squamous metaplasia, bacteria when active infection present) of the same compound?
The value was “Uptake was also observed in the basal layer of squamous metaplasia and in bacteria when active infection was present”.

And the “cell-associated silver grains in bone marrow smears” value (DNA; bone marrow)?
Its value is “free of cell-associated silver grains”.

What about the “uptake in the urothelium of control animals” value (DNA; control animals) of the same compound?
The value was “did not show uptake in the urothelium”.

What about the “autoradiographic uptake by the tumor” value (DNA; hyperplasia and papillary carcinoma stages) of the same compound?
Its value is “uptake of radiolabeled IUdR by the tumor at the early stage of tumor development, i.e. the hyperplasia stage, as well as in the later papillary carcinoma stage”.

And the “silver grains in actively dividing normal epithelia” value (DNA; rat, in vivo)?
The value was “did not show the presence of silver grains”.

What about the “silver grains in normal urothelium” value (DNA; rat, in vivo) of the same compound?
Its value is “generally free of silver grains”.

And the “DNA incorporation by abnormal urothelium vs normal” value (DNA; tumor-bearing animals)?
The value was “always significantly higher”.

What about the “percent injected dose per gram of bladder, tumor-bearing vs control” value ([8]; 48 h) of the same compound?
The value was “significant difference”.

And the “permeation to the systemic circulation” value ([8]; rat, not told)?
The value was “very low”.
